Laboratory results from patent US20120082658A1, “Methods for the Treatment of Allergic Diseases” (VentiRx Pharmaceuticals, Inc., priority 2010, published 2012).
Like-named read-outs stand apart in the source and are kept apart here.

Tested on: human peripheral blood mononuclear cells (PBMCs)
Test: Cytokine production in isolated human PBMCs
Type: cell-based
Details: for EC50: Homo sapiens, PBMC
Protocol: Preclinical studies were performed with VTX-378, the active pharmaceutical ingredient in VTX-1463. The specificity of VTX-378 for human TLR8 relative to other TLRs was assessed in transfected Human Embryonic Kidney 293 (HEK293) cells engineered to express individual TLRs (2-9) via transfection, and assessed using an NF-κB driven reporter system. […] The pharmacologic effects of VTX-378 were characterized in vitro using isolated human peripheral blood mononuclear cells (PBMCs).

Q: For `CC(C)Cn1cnc2c(N)nc3ccccc3c21` [Imiquimod, imiquimod, reference compound], which EC50 (analyte IL-10, read-out: EC50, IL-10 production) is on record?
A: Its EC50 is 17 µM.

Q: What about the EC50 (analyte IL-12p40, read-out: EC50, IL-12p40 production) of the same compound?
A: The EC50 was 0.27 µM.

Q: And the “Mean Mediator Level ± SEM, IL-10” value (Imiquimod 25 uM)?
A: Its value is 59 ± 24 pg/mL.

Q: And the “Mean Mediator Level ± SEM, IL-12p40” value (Imiquimod 25 uM)?
A: Its value is 10.2 ± 3.5 pg/mL.

Q: And the “Mean Mediator Level ± SEM, IL-12p70” value (Imiquimod 25 uM)?
A: The value was 0.6 ± 0.6 pg/mL.
